# Data taken from patent publication US9908886B2 (Agency for Science, Technology and Research, priority 2012, dated 2018).
# Read-outs that look alike come from different tables or passages of the source.
# Experiments:
# MNK1 = MNK1 (Homo sapiens, UniProt Q9BUB5); assay: In vitro MNK kinase assay (Caliper LabChip mobility shift); type: biochemical
# MNK2 = MNK2 (Homo sapiens (Human), UniProt Q9HBH9); assay: as above; type: biochemical
# [1] = test system: eIF4E phosphorylation in K562 cells; assay: Western blot of eIF4E phosphorylation in BC-CML cell line; type: cell-based; settings: various concentrations, 24 h
# Experimental: K562 cell line was obtained from the ATCC, and grown in RPMI supplemented with 10% FCS, L-glutamine, and penicillin/streptomycin.
# Exponentially growing cells were plated at 2×10^5 cells/ml, and whole cell lysate processed for western blot analysis using antibodies recognizing eIF4E, phospho-eIF4E (Cell signaling Technology),
# [2] = test system: CD34+ BC-CML primary cells; assay: Serial replating assay; type: cell-based, human; settings: for serial replating efficiency of CD34+ BC cells: increasing dose, 48 hr treatment, compared to DMSO
# Source text: Cord Blood (CB) samples were purchased from the Singapore Cord Blood bank. CML samples were the Singapore General Hospital after signed informed consent under local IRB-approved procedures. MNCs were obtained using Ficoll separation, and CD34^+ cells selected by immunomagnetic beads (Miltenyi Biotech, Germany).
# CD34-enriched CB and BC cells were thawed and allowed to recover overnight in serum-free StemPro media (Invitrogen, Carlsbad, Calif.), supplemented with human growth factors and 1× nutrient supplement (Invitrogen). Cells were then subjected to drug treatment for 48 hr, harvested, washed, and seeded in methycellulose (H4434, […] Technologies, Canada). Colonies were enumerated after 2 weeks, individually picked, and replated in fresh methylcellulose in a 96-well format, and counted at 2 weeks. Three rounds of serial replating (representing>8 weeks in culture) were performed.
# [3] = test system: eIF4E Ser209 phosphorylation in Hela cells; assay: MNK cell-based assay, AlphaScreen SureFire; settings: 2 hours
# Source text: It has been reported that Ser209 of eIF4E is solely phosphorylated by the MNK enzymes. The ability of compounds to inhibit this process in Hela cells was investigated using the AlphaScreen SureFire® assay platform from Perkin Elmer (Waltham, Mass.). eIF4E phosphorylated on Ser209 is recognized by two antibodies, the first which is fused to a streptavidin coated donor bead binds to an epitope away from Ser209, the second which is fused to a protein A conjugated acceptor bead binds to phosphorylated Ser209. The phosphorylation of eIF4E on Ser209 brings the two antibodies into close proximity and when excited by a laser a singlet oxygen is released by the donor bead which excites the acceptor bead resulting in the emission of light. This enables the monitoring of eIF4E Ser209 phosphorylation and its inhibition in a cellular context.
# Hela cells were seeded into microtitre plates (30,000 cells per well) in 100 μl of culture medium and incubated at 37° C. for 24 hours. The media was then removed by aspiration and the cells resuspended in 50 μl of serum free medium containing the test compound and incubated at 37° C. for 2 hours. The culture medium was again removed by aspiration and the cells resuspended in lysis buffer (provided in Perkin Elmer SureFire® Assay Kit). After agitation at 350 rpm for 20 minutes at 22° C., 4 μl was transferred to a 384 well OptiPlate™ (Perkin Elmer, Waltham, Mass.). To each well was added 5 μl of acceptor mix; the plate was sealed and agitated gently at 22° C. for 2 hours. Then, in subdued light, 2 μl of donor mix was added to each well, the plate was sealed, wrapped in aluminum foil and agitated gently at 22° C. for 2 hours. Emission was measured using the EnVision® plate reader (Perkin Elmer, Waltham, Mass.).
# Inhibition constants (IC50) were determined by plotting AlphaScreen signal versus log compound concentration and fitting with a non-linear regression algorithm using GraphPad Prism (GraphPad Software Inc.).
# D1.1 cells = assay: Cell cytotoxicity assay (CellTiter-Glo); type: cell-based; settings: 48 hours extended to 6 days
# Experimental: (§1) Cancer cell lines, MV-4-11 (leukemia), P116.c139 (acute T cell leukemia) and D1.1 (acute T cell leukemia), were purchased from ATCC and cultured according to supplier's recommendations. K562 cells (myelogenous leukemia) over-expressing eIF4E, were also used for the cytotoxicity assay. For cells treated for 48 hours, 5000 cells were seeded in 70 μl of growth medium in black, flat-bottom 96-well plate. For cells treated for six days, 1000 cells were seeded in 70 μl of growth medium in black, flat-bottom 96-well plate. […] 50 μl of the diluted compounds was added to the cells and incubated at 37° C. in 5% CO2. After 48 hours or six days treatment, cell viability was determined by CellTiter-Glo Luminescent Cell Viability Assay (Promega, Madison, Wis.). 120 μl of the reagent was added to the cells and luminescence was measured using Tecan Safire Reader. Data was analysed with Graphpad Prism software and the figures represented indicate the half maximal inhibitory concentration (IC50). Error bars denote standard deviation (SD).
# [4] = test system: K562 cells over-expressing eIF4E; assay: Cell cytotoxicity assay (CellTiter-Glo); type: cell-based; settings: 48 hours extended to 6 days
# Experimental: as §1
# P116.c139 cells = assay: Cell cytotoxicity assay (CellTiter-Glo); type: cell-based; settings: 48 hours extended to 6 days
# Experimental: as §1
# [5] = enzymatic, 1.2 mM ATP, read-out: IC50 Mnk1
# [6] = enzymatic, 250 μM ATP, read-out: IC50 Mnk2
# Chain of MNK2 (Q9HBH9 84-388): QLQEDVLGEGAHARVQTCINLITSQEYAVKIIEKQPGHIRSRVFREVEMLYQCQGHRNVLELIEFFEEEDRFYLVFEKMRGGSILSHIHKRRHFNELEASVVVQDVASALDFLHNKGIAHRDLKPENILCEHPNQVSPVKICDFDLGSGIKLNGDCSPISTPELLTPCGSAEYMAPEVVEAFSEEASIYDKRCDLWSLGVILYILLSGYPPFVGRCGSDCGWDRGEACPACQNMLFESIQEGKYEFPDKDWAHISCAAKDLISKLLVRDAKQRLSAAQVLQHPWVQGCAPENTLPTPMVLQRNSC
Compound,IC50 (MNK1; [5]),IC50 (MNK2; [6]),further results
"CN1CCN(C(=O)c2ccc(-c3cn4c(-c5ccc(O)cc5)cnc4cn3)cc2)CC1 [Example 1, (4-(3-(4-hydroxyphenyl)imidazo[1,2-a]pyrazin-6-yl)phenyl)(4-methylpiperazin-1-yl)methanone]",< 100 nM,< 100 nM,eIF4E phosphorylation [1]: prevent eIF4E phosphorylation; serial replating efficiency of CD34+ BC cells [2]: retards the serial replating efficiency
"O=C(c1ccc(-c2cn3c(-c4ccc(O)cc4)cnc3cn2)cc1)N1CCOCC1 [Example 2, (4-(3-(4-hydroxyphenyl)imidazo[1,2-a]pyrazin-6-yl)phenyl)(morpholino)methanone]",< 1000 nM,< 1000 nM,eIF4E phosphorylation [1]: prevent eIF4E phosphorylation; ability of BC cells to serial replate ([2]; at 10.0 μM and 20.0): potently impaired the ability of BC cells to serial replate; serial replating efficiency of CD34+ BC cells [2]: retards serial replating efficiency
"CN1CCN(C(=O)c2ccc(-c3cn4c(-c5ccc(C#N)cc5)cnc4cn3)cc2)CC1 [Example 6, 4-(6-(4-(4-methylpinerazine-1-carbonyl)phenyl)imidazo[1,2-a]pyrazin-3-yl)benzonitrile]",,,eIF4E phosphorylation [1]: prevent eIF4E phosphorylation
CN1CCN(C(=O)c2ccc(-c3ccc4ncc(-c5ccc(C#N)cc5)n4n3)cc2)CC1 [Example 54],,,IC50 ([3]; Homo sapiens): < 1000 nM
"N#Cc1ccc(-c2cnc3ccc(-c4ccc(C(=O)N5CCN(c6ccncc6)CC5)cc4)cn23)cc1 [Example 125, 4-(6-(4-(4-(pyridin-4-1)piperazine-1-carbonyl)phenyl)imidazo[1,2-a]pyridin-3-yl)benzonitrile]",,,IC50 [3]: < 1000 nM
"CN1CCN(C2CCN(C(=O)c3ccc(-c4ccc5ncc(-c6ccc(C#N)cc6)n5c4)cc3)CC2)CC1 [Example 133, 4-(6-(4-(4(4-methylpiperazin-1-yl)piperidine-1-carbonyl)phenyl)imidazo[1,2-a]pyridin-3-yl)benzonitrile]",< 100 nM,< 100 nM,"change of IC50 with treatment duration, D1.1 cells (D1.1 cells): not influenced by the treatment duration; change of IC50 with treatment duration, K562 cells over-expressing eIF4E [4]: not influenced by the treatment duration; change of IC50 with treatment duration, P116.c139 cells (P116.c139 cells): decrease the IC50 by more than half-fold"
"CN1CCN(C(=O)c2ccc(-c3ccc4ncc(-c5ccc(C#N)cc5)n4c3)cc2O)CC1 [Example 143, 4-(6-(3-hydroxy-4-(4-methylpiperazine-1-carbonyl)phenyl)imidazo[1,2-a]pyridin-3-yl)benzonitrile]",< 100 nM,< 100 nM,IC50 ([3]; Homo sapiens): < 1000 nM
"CN1CCN(C(=O)c2ccc(-c3ccc4ncc(-c5ccc(C#N)cc5)n4c3)c(O)c2)CC1 [Example 144, 4-(6-(2-hydroxy-4-(4-methylpiperazine-1-carbonyl)phenyl)imidazo[1,2-a]pyridin-3-yl)benzonitrile]",< 100 nM,< 100 nM,IC50 ([3]; Homo sapiens): < 1000 nM
"CNC1CCN(C(=O)c2ccc(-c3ccc4ncc(-c5ccc(C#N)cc5)n4c3)cc2NC(C)=O)CC1 [Example 169, N-(5-(3-(4-cyanophenyl)imidazo[1,2-a]pyridin-6-yl)-2-(4-(methylamino)piperidine-1-carbonyl)phenyl)acetamide]",,,IC50 (MNK1): < 100 nM; IC50 (MNK2): < 100 nM
"CC(=O)Nc1cc(-c2ccc3ncc(-c4ccc(C#N)cc4)n3c2)ccc1C(=O)N1CCNCC1 [Example 170, N-(5-(3-(4-cyanophenyl)imidazo[1,2-a]pyridin-6-yl)-2-(piperazine-1-carbonyl)phenyl)acetamide]",< 100 nM,< 100 nM,
"COC1(C)CCN(C(=O)c2ccc(-c3ccc4ncc(-c5ccc(C#N)cc5)n4c3)cc2)CC1 [Example 172, 4-(6-(4-(4-methoxy-4-methylpiperidine-1-carbonyl)phenyl)imidazo[1,2-a]pyridin-3-yl)benzonitrile]",< 100 nM,< 100 nM,
"CC1(N)CCN(C(=O)c2ccc(-c3ccc4ncc(-c5ccc(Cl)cc5)n4c3)cc2)CC1 [Example 173, (4-amino-4-methylpiperidin-1-yl)(4-(3-(4-chlorophenyl)imidazo[1,2-a]pyridin-6-yl)phenyl)methanone]",< 100 nM,< 100 nM,
"NC1CCN(C(=O)c2ccc(-c3ccc4ncc(-c5ccc(Cl)cc5)n4c3)cc2)CC1 [Example 174, (4-aminopiperidin-1-yl)(4-(3-(4-chlorophenyl)imidazo[1,2-a]pyridin-6-yl)phenyl)methanone]",< 100 nM,< 100 nM,
"CN1CCN(C2CCN(C(=O)c3ccc(-c4ccn5ncc(-c6ccc(C#N)cc6)c5n4)cc3)CC2)CC1 [Example 179, 4-(5-(4-(4-(4-methylpiperazin-1-yl)piperidine-1-carbonyl)phenyl)pyrazolo[1,5-a]pyrimidin-3-yl)benzonitrile]",< 100 nM,< 100 nM,
"N#Cc1ccc(-c2cnn3ccc(-c4ccc(C(=O)N5CCCOCC5)cc4)nc23)cc1 [Example 181, 4-(5-(4-(1,4-oxazepane-4-carbonyl)phenyl)pyrazolo[1,5-a]pyrimidin-3-yl)benzonitrile]",< 100 nM,< 100 nM,
"N#Cc1ccc(-c2cnn3ccc(-c4ccc(C(=O)N5CCNCC5)cc4)nc23)cc1 [Example 183, 4-(5-(4-(piperazine-1-carbonyl)phenyl)pyrazolo[1,5-a]pyrimidin-3-yl)benzonitrile]",< 100 nM,< 100 nM,
CC(=O)N1CCN(C(=O)c2ccc(-c3ccn4ncc(-c5ccc(C#N)cc5)c4n3)cc2)CC1 [Example 184],< 100 nM,< 100 nM,
"N#Cc1ccc(-c2cnn3ccc(-c4ccc(C(=O)N5CCOCC5)cc4)nc23)cc1 [Example 185, 4-(5-(4-(morpholine-4-carbonyl)phenyl)pyrazolo[1,5-a]pyrimidin-3-yl)benzonitrile]",< 100 nM,< 100 nM,
"CC(=O)NC1CCN(C(=O)c2ccc(-c3ccn4ncc(-c5ccc(C#N)cc5)c4n3)cc2)CC1 [Example 186, N-(1-(4-(3-(4-cyanophenyl)pyrazolo[1,5-a]pyrimidin-5-yl)benzoyl)piperidin-4-yl)acetamide]",< 100 nM,< 100 nM,
"N#Cc1ccc(-c2cnn3ccc(-c4ccc(C(=O)N5CCOCC5)c(O)c4)nc23)cc1 [Example 187, 4-(5-(3-hydroxy-4-(morpholine-4-carbonyl)phenyl)pyrazolo[1,5-a]pyrimidin-3-yl)benzonitrile]",< 100 nM,< 100 nM,
"N#Cc1ccc(-n2cnc3ccc(-c4ccc(C(=O)N5CCOCC5)cc4)cc32)cc1 [Example 190, 4-(6-(4-(morpholine-4-carbonyl)phenyl)-1H-benzo[d]imidazol-1-yl)benzonitrile]",,,IC50 (MNK1): < 1000 nM; IC50 (MNK2): < 1000 nM
"N-(1-(4-(3-(4-chlorophenyl)imidazo[1,2-a]pyrazin-6-yl)benzoyl)piperidin-4-yl)-2,2,2-acetamide [Example 49]",,,IC50 [3]: < 1000 nM
"N-(5-(3-(4-cyanophenyl)imidazo[1,2-b]pyridazin-6-yl)-2-morpholine-4-carbonyl)phenyl)acetamide [Example 80]",,,IC50 [3]: < 1000 nM
